Experimental data published in patent US9624235B2, “Compounds and methods for inhibition of AP endonuclease-1/redox factor-1 (HAPE1) activity” (University of Pittsburgh—Of the Commonwealth System of …, priority 2012, dated 2017).
Read-outs that look alike come from different tables or passages of the source.

Legend:
APE-1 [1] = target: T1, APE-1 (Homo sapiens (Human), UniProt P27695); test: Gel-based excision assay for APE-1 inhibitors; format: biochemical; conditions: APE-1 cleaved fragment vs. full length DNA substrate
T1 sequence (P27695 whole entry, the tested form may be a part): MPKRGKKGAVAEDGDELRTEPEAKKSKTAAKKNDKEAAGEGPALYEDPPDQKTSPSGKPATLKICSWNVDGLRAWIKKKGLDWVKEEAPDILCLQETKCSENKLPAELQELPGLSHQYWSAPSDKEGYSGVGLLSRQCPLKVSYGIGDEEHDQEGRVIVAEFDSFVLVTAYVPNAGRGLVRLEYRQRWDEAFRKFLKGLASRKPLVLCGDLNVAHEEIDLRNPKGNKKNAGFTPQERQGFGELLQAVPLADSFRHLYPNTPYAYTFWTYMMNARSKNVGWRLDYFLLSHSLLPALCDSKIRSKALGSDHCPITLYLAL
Method: Screening for APE-1 Inhibitors. […] In this assay, the DNA hairpin substrate has a 6-FAM fluorophore on the 5′-terminus, a DABACYL fluorescence quencher on the 3′-terminus and a THF abasic site located 6 base pairs from the 5′-terminus in the stem region (FIG. 6). APE-1 activity is monitored as an increase in fluorescence due to the release of the 5′-(6-FAM)-GCACT fragment as a function of time. […] In this assay, substrate turnover was calculated from relative intensities of cleaved vs. intact oligomers and correlated with inhibitor concentration.

[2] = target: APE-1 activity in T98G cell nuclear lysates (Homo sapiens (Human), UniProt P27695); test: Molecular beacon assay in T98G cell nuclear extracts; format: biochemical
APE-1 activity in T98G cell nuclear lysates, sequence (P27695 whole entry, stated change not applied): as the sequence (P27695 whole entry, the tested form may be a part) above
Method: Isolation and Assay of APE-1 Protein from Nuclear Extracts of Glioma Cells. Human glioblastoma cells (T98G) were maintained in growth medium, i.e., Eagle's Minimum Essential Medium (EMEM) with 10% fetal bovine serum (FBS), […] gentamycin, 1×MEM non-essential amino acids and 1 mM sodium pyruvate. Cells were harvested by Trypsin-EDTA treatment, washed with 1×PBS and nuclear proteins isolated using the CelLytic NuCLEAR Extraction kit (Sigma-Aldrich) as per manufacturer's instructions. Isolated nuclear proteins were estimated colorimetrically (BCA protein assay) and stored at −80° C. (long term) or at −20° C. during regular use. To assay APE-1 activity in T98G cells, nuclear extracts were serially diluted in 10 mM HEPES, 50 mM KCl, 1 mM DTT, 20% (v/v) glycerol and the activities measured via the molecular beacon assay (as described above). […] EC2 nM of nuclear extracts was incubated with 2 to 500 nM hairpin DNA substrate and the V0 measured for each value of [S]. Finally, the apparent KM* was deduced using the software algorithm in Prism (as described previously), and the KM* was used to determine the apparent Ki*. Inhibition of EC2 nM APE-1 activity by the inhibitors was assayed via the molecular beacon assay (described above).
Inhibition of APE-1 Activity in Nuclear Lysates. The ability of 1-5 and 8 to block APE-1 endonuclease activity in a complex mixture of proteins from T98G cell nuclear lysates was tested using the molecular beacon assay. The APE-1 activity in the lysates was standardized to give ˜90% turnover of 25 nM substrate in 10 min.

APE-1 [3] = target: T1, APE-1; test: Fluorescence binding of 4 to APE-1 protein; conditions: 1 μM APE-1, fluorescence increase
Method: Fluorescence and UV Spectrometry Binding Studies. The fluorescence spectra were measured at room temperature on a Cary Eclipse fluorescence spectrometer (Varian, Palo Alto, Calif.). The fluorescence properties of 1 and 4 were measured in 10 mM HEPES, 0.5 mM MgCl2, 100 mM KCl, 100 mM NaCl, 2% glycerol, in absence or presence of wild type (unmodified) hairpin DNA (5′-[…]-3′) or THF-modified hairpin DNA (5′-CGAXTTCGCAGGACCGAATTCG-3′) or APE-1 protein. A solution of 0.5 μM of either DNA sequence was titrated against 1-10 μM ethidium bromide (EtBr) to determine saturation of EtBr by fluorescence (530 nm excitation with 610 nm emission) and the subsequent displacement of EtBr (4 μM) by 1-20 μM 1 or 4 was also assayed. The APE protein-inhibitor binding fluorescence was assayed by titrating 0.1-20 μM of 4 against 1 μM of APE-1 protein.
Interaction of Inhibitors with APE-1 Protein. To establish whether there is a direct interaction between an inhibitor and APE-1, the fluorescence spectra of 4 was determined in the absence and presence of increasing amounts of the protein.

T98G cells [4] = test: Short term (72 h) MTS cytotoxicity assay; format: cell-based, human
Method: (§1) Cytotoxic Effects of APE-1 Inhibitors on Cultured Human Glioblastoma (T98G) Cells. Human glioblastoma cells (T98G) were maintained in growth medium as described above. […] The cells were allowed to attach and grow for 24 h, and then treated with serial dilutions of the drug for 72 h. After treatment, viable cells were measured by an MTS assay using the CellTiter 96 AQueous kit (Promega) as per manufacturer's instructions. […] The cells were allowed to attach and grow for 24 h and treated with serial dilutions of the drug for 240 h. After treatment, viable cells were measured using the CyQUANT cell proliferation assay kit (Invitrogen) as per manufacturer's instructions.
(§2) Toxicity. It was assumed that inhibition of APE-1 activity would be lead to toxicity since genetic deletion of the protein is lethal to cells. […] The toxicities were also determined in combination with the DNA minor groove methylating agent, MeLex. MeLex efficiently and selectively generates N3-methyladenine, which is converted into an abasic site by a BER glycosylase and/or hydrolytic depurination. The T98G cell line is relatively resistant to DNA damaging anticancer agents due to expression of multiple drug resistance proteins and O^6-alkylguanine-DNA alkyltransferase. […] A goal of the development of APE-1 inhibitors is to determine if they can be used to enhance the activity of DNA alkylating agents.

T98G cells [5] = test: Long term (10-day) CyQUANT cytotoxicity assay; format: cell-based, human
Method: as §1, §2

leukemia cell lines = test: NCI 60 cell line growth inhibition; format: cell-based
SK-MEL-5 (melanoma) line = test: NCI 60 cell line growth inhibition; format: cell-based; conditions: Homo sapiens; 4 alone, SK-MEL-5 line
SK-MEL-5 melanoma cells = test: Combination of APE1 inhibitor 4 with approved anticancer drugs, NCI60 cell line assay; format: cell-based; conditions: preliminary screen
Excerpt: FIG. 5. An example of the enhanced activity of vemurafenib in combination with APE1 inhibitor 4 in SK-MEL-5 melanoma cells. Matric controls are run in singlet on each matrix and compared to replicate (n=10) controls for vemurafenib and 4.
APE1 Inhibitor 4 Enhances the Toxicity of Anticancer Drugs in the NCl60 Cell Line Assay—In a preliminary screen using 10 randomly selected cell lines, the effect of APE1 inhibitor 4 on the growth of 20 recently approved non-genotoxic anticancer drugs was assayed.

CCn1c2ccccc2c2cc(/C=N/Nc3cc(C)nc4cc5c(cc34)OCO5)ccc21 [Compound 4] gave an IC50 (APE-1 [1]) of 4100 nM, a Ki [2] of 210 nM and a Kd (APE-1 [3]) of 6150 nM. For the same compound, the LD10 concentration (T98G cells [4]; 72 h MTS assay) was 0.25 µM, the LD50 (T98G cells [4]; MTS assay, T98G) was 960 nM and the LD50 / toxicity (T98G cells [5]; long term (clonogenic) assay, T98G) was 190 nM. It also gave an LD10 concentration (T98G cells [5]; long term assay) of 0.08 µM, a GI50 (leukemia cell lines; 60 cell, 6 leukemia cell lines, read-out: GI50 overall average leukemia cell lines) of 1800 ± 2900 nM and a GI50 (leukemia cell lines; Homo sapiens, HL-60 omitted, read-out: GI50 leukemia cell lines, HL-60 line omitted) of 640 ± 400 nM. The GI50 (SK-MEL-5 (melanoma) line) was 4000 nM and the “effect in combination with Vemurafenib” value (SK-MEL-5 melanoma cells) was “>additive”.
